This passage reports melting point and mortality results from patent US9403845B2, “Pesticidally active pyridyl- and pyrimidyl- substituted pyrazole derivatives” (Syngenta Participations AG, priority 2012, dated 2016).

In series [1] the test system is Myzus persicae (Green Peach Aphid). The series can be described thus: Activity against Myzus persicae (green peach aphid), mixed population, feeding/residual contact activity, preventive. The class given is in vivo. To be noted: foliar, 144 h, sprayed sunflower leaf discs, aphid population of mixed ages, 6 days incubation. The text has this:
Activity Against Myzus persicae (Green Peach Aphid)
(Mixed Population, Feeding/Residual Contact Activity, Preventive)

For series [2], the system named is Bemisia tabaci (Cotton White Fly). In words: Activity against Bemisia tabaci (cotton white fly), feeding/residual contact activity, preventive. To be noted: foliar, 144 h, sprayed cotton leaf discs, 12 to 18 adults, 6 days after infestation, read-out: activity (mortality and special effects). The class given is in vivo. As to the method:
Activity Against Bemisia tabaci (Cotton White Fly)
(Feeding/Residual Contact Activity, Preventive)
Cotton leaf discs were placed on agar in a 24-well microtiter plate and sprayed with test solutions. After drying, the leaf discs were infested with 12 to 18 adults. After an incubation period of 6 days after infestation, samples were checked for mortality and special effects (e.g. phytotoxicity).

Turning to `CC(C)O/N=C1\CCCc2ccc(-c3cnn(-c4cccnc4)c3)nc21` (single isomer, unassigned) [Compound 1.005, 2-(1-pyridin-3-yl-1H-pyrazol-4-yl)-6,7-dihydro-5H-quinolin-8-one O-isopropyl-oxime], the melting point (usually the temperature of the solid-liquid transition) lay in the range of 128 to 130 °C.

As to `CON=C1c2nc(-c3cnn(-c4cccnc4)c3)ccc2N(C)S(=O)(=O)C1(C)C` (single isomer, unassigned) [Compound 8.004, N-methoxy-1,3,3-trimethyl-2,2-dioxo-6-[1-(3-pyridyl)pyrazol-4-yl]pyrido[3,2-c]thiazin-4-imine], the mortality at 200 ppm in series [1] and in series [2] was over 80% in each case. On to `CO/N=C1\CCOc2ccc(-c3cnn(-c4cccnc4)c3)nc21` [Compound 1.008, N-methoxy-6-[1-(3-pyridyl)pyrazol-4-yl]-2,3-dihydropyrano[3,2-b]pyridin-4-imine], for which the mortality at 200 ppm in series [1] and in series [2] was over 80% in each case.

Regarding `CO/N=C1\CCCc2sc(-c3cnn(-c4cccnc4)c3)nc21` [Compound 3.002, N-methoxy-2-[1-(3-pyridyl)pyrazol-4-yl]-6,7-dihydro-5H-1,3-benzothiazol-4-imine], the mortality (commonly the share of the test organisms that died) at 200 ppm in series [1] was over 80%.

In turn, `CC(=O)N/N=C1\CCCc2ccc(-c3cnn(-c4cccnc4)c3)nc21` [Compound 6.007, acetic acid [2-(1-pyridin-3-yl-1H-pyrazol-4-yl)-6,7-dihydro-5H-quinolin-ylidene]-hydrazide] registered a mortality at 200 ppm in series [1] of over 80%. With `O=C1CCCc2ccc(-c3cnn(-c4cccnc4)c3)nc21` [Compound 7.002, 2-(1-pyridin-3-yl-1H-pyrazol-4-yl)-6,7-dihydro-5H-quinolin-8-one], the mortality at 200 ppm in series [2] was over 80%. With `O=C1CCOc2ccc(-c3cnn(-c4cccnc4)c3)nc21` [Compound 7.004, 6-[1-(3-pyridyl)pyrazol-4-yl]-2,3-dihydropyrano[3,2-b]pyridin-4-one], the mortality at 200 ppm in series [1] and in series [2] was over 80% in each case. With `CCO/N=C1\CS(=O)(=O)N(C)c2ccc(-c3cnn(-c4cccnc4)c3)nc21` [Compound 8.003, N-ethoxy-2-hydroxy-1-methyl-2-oxo-6-[1-(3-pyridyl)pyrazol-4-yl]pyrido[3,2-c]thiazin-4-imine], the mortality at 200 ppm in series [1] and in series [2] was over 80% in each case. Take `CN1Cc2ccc(-c3cnn(-c4cccnc4)c3)nc2C1=O` [Compound 9.001]: the mortality at 200 ppm in series [1] was over 80%. `Cn1c(=O)c2c(nc(-c3cnn(-c4cccnc4)c3)n2C)n(C)c1=O` [Compound 9.002] displayed a melting point of over 300 °C. Turning to `CC1CCc2ccc(-c3cnn(-c4cccnc4)c3)nc2C1=O` (stereo not shown) [Compound 9.003], the mortality at 200 ppm in series [1] and in series [2] was over 80% throughout.
